# PMC7470033, “In vitro inhibitory effect of lysionotin on the activity of cytochrome P450 enzymes” (Pharmaceutical Biology, 2020)
# Legend:
# CYP2C19 = molecular target: T1, CYP2C19 (Homo sapiens, UniProt P33261); assay: Time-dependent inhibition study of CYP2C19 in HLMs; assay type: in vitro ADME; details: 20 μM lysionotin, 0–30 min
# T1 construct: Pooled HLMs were purchased from BD Biosciences Discovery Labware; tissue BD Biosciences Discovery Labware; host or cells: pooled human liver microsomes
# Description: (§1) To determine whether lysionotin could inhibit the activity of CYP3A4, 2C19, and 2C8 in a time-dependent manner, lysionotin (20 μM) was pre-incubated with HLMs (1 mg/mL) in the presence of an NADPH-generating system for 30 min at 37 °C. After incubation, an aliquot (20 μL) was transferred to another incubation tube (final volume 200 μL) containing an NADPH-generating system and probe substrates whose final concentrations were approximate to Km. Then, further incubations were performed to measure the residual activity. After being incubated for 0, 5, 10, 15, and 30 min, the reactions were terminated by adding a 100 μL acetonitrile internal standard mix and then placed on ice; the corresponding metabolites were determined by HPLC.
# CYP2E1 = molecular target: T2, CYP2E1 (Homo sapiens, UniProt P05181); assay: CYP2E1 inhibition in pooled human liver microsomes (chlorzoxazone 6-hydroxylation); assay type: in vitro ADME; details: 100 μM lysionotin, pooled HLMs, p > 0.05
# T2 construct: Pooled HLMs were purchased from BD Biosciences Discovery Labware; tissue BD Biosciences Discovery Labware; host or cells: pooled human liver microsomes
# Description: (§2) In this study, lysionotin was incubated with eight CYP isoforms (i.e., 1A2, 3A4, 2A6, 2E1, 2D6, 2C9, 2C19 and 2C8) in pooled human liver microsomes to investigate the interaction between lysionotin and CYPs, which can provide direct evidence for the effect of lysionotin on the activity of CYPs. In vitro, phenacetin (CYP1A2), testosterone (CYP3A4), coumarin (CYP2A6), chlorzoxazone (CYP2E1), dextromethorphan (CYP2D6), diclofenac (CYP2C9), S-mephenytoin (CYP2C19) and paclitaxel (CYP2C8) were used as probe substrates to determine the effects of lysionotin on eight CYP enzymes. In addition, enzyme kinetic studies were conducted to determine the inhibition model of lysionotin on CYP enzymes. […]
# (§3) The concentration of lysionotin was 100 μM, and the positive inhibitor concentrations were as follows: 10 μM furafylline for CYP1A2, 1 μM ketoconazole for CYP3A4, 10 μM tranylcypromine for CYP2A6, 50 μM clomethiazole for CYP2E1, 10 μM quinidine for CYP2D6, 10 μM sulfaphenazole for CYP2C9, 50 μM tranylcypromine for CYP2C19, 5 μM montelukast for CYP2C8. […] The instrument used in this study was Agilent 1260 series instrument with DAD and FLD detector, and the quantitative assay for the corresponding metabolites was performed as previously reported and the detection conditions are summarised in Table 2 (He et al. [2015]; Lang et al. [2017]; Zhang et al. [2017]). […]
# CYP3A4 [1] = molecular target: T3, CYP3A4 (Homo sapiens, UniProt P08684); assay: CYP3A4 inhibition in pooled human liver microsomes (testosterone 6β-hydroxylation); assay type: in vitro ADME
# T3 construct: Pooled HLMs were purchased from BD Biosciences Discovery Labware; tissue BD Biosciences Discovery Labware; host or cells: pooled human liver microsomes
# Description: In this study, lysionotin was incubated with eight CYP isoforms (i.e., 1A2, 3A4, 2A6, 2E1, 2D6, 2C9, 2C19 and 2C8) in pooled human liver microsomes to investigate the interaction between lysionotin and CYPs, which can provide direct evidence for the effect of lysionotin on the activity of CYPs. In vitro, phenacetin (CYP1A2), testosterone (CYP3A4), coumarin (CYP2A6), chlorzoxazone (CYP2E1), dextromethorphan (CYP2D6), diclofenac (CYP2C9), S-mephenytoin (CYP2C19) and paclitaxel (CYP2C8) were used as probe substrates to determine the effects of lysionotin on eight CYP enzymes. In addition, enzyme kinetic studies were conducted to determine the inhibition model of lysionotin on CYP enzymes.
# All incubations were performed in triplicate, and the mean values were utilised. The typical incubation systems contained 100 mM potassium phosphate buffer (pH 7.4), NADPH generating system (1 mM NADP^+, 10 mM glucose-6-phosphate, 1 U/mL of glucose-6-phosphate dehydrogenase, and 4 mM MgCl2), the appropriate concentration of HLMs, a corresponding probe substrate and lysionotin (or positive inhibitor for different probe reactions) in a final volume of 200 μL.
# as §3
# The enzyme kinetic parameters for the probe reaction were estimated from the best fit line, using least-squares linear regression of the inverse substrate concentration versus the inverse velocity (Lineweaver-Burk plots), and the mean values were used to calculate Vmax and Km. Inhibition data from the experiments that were conducted using multiple compound concentrations were represented by Dixon plots, and inhibition constant (Ki) values were calculated using non-linear regression according to the following equation: v=(VmaxS)/(Km(1+I/Ki+S)for competitive inhibition v=(VmaxS)/[(Km+S((1+I/Ki)] for non-competitive inhibition where I is the concentration of the compound, Ki is the inhibition constant, S is the concentration of the substrate, and Km is the substrate concentration at half the maximum velocity (Vmax) of the reaction. The mechanism of the inhibition was inspected using the Lineweaver-Burk plots and the enzyme inhibition models. […]
# CYP2C9 = molecular target: T4, CYP2C9 (Homo sapiens, UniProt P11712); assay: CYP2C9 inhibition in pooled human liver microsomes (diclofenac 4′-hydroxylation); assay type: in vitro ADME; details: 100 μM lysionotin, pooled HLMs, p > 0.05
# T4 construct: Pooled HLMs were purchased from BD Biosciences Discovery Labware; tissue BD Biosciences Discovery Labware; host or cells: pooled human liver microsomes
# Description: as §2, §3
# CYP1A2 = molecular target: T5, CYP1A2 (Homo sapiens, UniProt P05177); assay: CYP1A2 inhibition in pooled human liver microsomes (phenacetin O-deethylation); assay type: in vitro ADME; details: 100 μM lysionotin, pooled HLMs, p > 0.05
# T5 construct: Pooled HLMs were purchased from BD Biosciences Discovery Labware; tissue BD Biosciences Discovery Labware; host or cells: pooled human liver microsomes
# T5 sequence (P05177 1-516): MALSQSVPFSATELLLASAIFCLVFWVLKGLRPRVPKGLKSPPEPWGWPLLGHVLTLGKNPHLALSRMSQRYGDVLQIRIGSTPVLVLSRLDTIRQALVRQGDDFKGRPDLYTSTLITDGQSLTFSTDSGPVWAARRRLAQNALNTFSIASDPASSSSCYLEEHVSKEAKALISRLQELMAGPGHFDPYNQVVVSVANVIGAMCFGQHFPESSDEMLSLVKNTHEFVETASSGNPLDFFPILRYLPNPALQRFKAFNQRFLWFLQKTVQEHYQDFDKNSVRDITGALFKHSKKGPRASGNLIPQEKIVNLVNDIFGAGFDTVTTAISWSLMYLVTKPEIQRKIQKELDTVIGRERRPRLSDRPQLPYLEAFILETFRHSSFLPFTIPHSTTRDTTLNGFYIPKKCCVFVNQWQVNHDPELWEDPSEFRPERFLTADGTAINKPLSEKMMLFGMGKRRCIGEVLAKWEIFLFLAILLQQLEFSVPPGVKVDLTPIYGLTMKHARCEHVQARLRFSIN
# Description: as §2, §3
# CYP3A4 [2] = molecular target: T3, CYP3A4; assay: Time-dependent inhibition study of CYP3A4 in HLMs; assay type: in vitro ADME
# Description: as §1
# To determine the KI and Kinact values for the inactivation of CYP3A4, the incubations were conducted using higher probe substrate concentrations (approximately 4-fold Km values) and various concentrations of lysionotin (0–50 μM) after different preincubation times (0–30 min), with a two-step incubation scheme, as described above. The value of KI and Kinact was calculated with the equation 1/Kobs = KI/Kinact*1/[I] + 1/Kinact. Where Kobs is the pseudo-first-order rate constant of inactivation at inactivated concentration [I], Kinact is the maximum inactivation rate (a theoretical value that cannot be experimentally observed), and KI is the inactivated concentration when the rate of inactivation reaches half of Kinact.
# [3] = parameters: method as in Liu et al. [2013]; details: oral administration of 50 mg/kg, ref Liu et al. [2013]; cited from earlier work
# T3 sequence (P08684 whole entry): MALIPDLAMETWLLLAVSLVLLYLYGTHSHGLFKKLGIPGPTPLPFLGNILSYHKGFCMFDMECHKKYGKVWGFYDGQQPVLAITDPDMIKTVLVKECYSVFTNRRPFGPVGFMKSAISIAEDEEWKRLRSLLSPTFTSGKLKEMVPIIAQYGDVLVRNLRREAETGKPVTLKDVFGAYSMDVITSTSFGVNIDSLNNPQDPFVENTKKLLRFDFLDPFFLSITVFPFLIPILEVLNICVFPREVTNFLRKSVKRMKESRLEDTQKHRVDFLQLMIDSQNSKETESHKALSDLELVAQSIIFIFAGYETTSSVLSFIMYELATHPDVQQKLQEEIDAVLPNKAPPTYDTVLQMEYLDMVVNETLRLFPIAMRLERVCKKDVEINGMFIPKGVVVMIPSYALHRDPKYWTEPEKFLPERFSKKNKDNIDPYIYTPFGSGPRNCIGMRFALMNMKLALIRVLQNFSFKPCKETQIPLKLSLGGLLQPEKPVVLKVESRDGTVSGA
# T4 sequence (P11712 whole entry): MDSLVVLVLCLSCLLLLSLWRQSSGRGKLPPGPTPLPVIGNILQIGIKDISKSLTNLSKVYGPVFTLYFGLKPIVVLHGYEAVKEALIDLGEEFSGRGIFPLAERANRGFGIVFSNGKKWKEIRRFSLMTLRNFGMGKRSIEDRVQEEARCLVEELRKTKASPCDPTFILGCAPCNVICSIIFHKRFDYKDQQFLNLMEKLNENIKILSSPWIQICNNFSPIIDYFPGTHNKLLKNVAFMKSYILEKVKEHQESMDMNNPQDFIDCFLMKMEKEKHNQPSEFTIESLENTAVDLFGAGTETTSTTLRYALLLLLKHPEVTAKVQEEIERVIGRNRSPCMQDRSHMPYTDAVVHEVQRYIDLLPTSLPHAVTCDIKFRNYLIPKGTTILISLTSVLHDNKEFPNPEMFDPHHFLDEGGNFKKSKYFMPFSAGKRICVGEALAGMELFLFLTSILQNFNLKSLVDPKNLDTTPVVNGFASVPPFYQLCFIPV
# T2 sequence (P05181 whole entry): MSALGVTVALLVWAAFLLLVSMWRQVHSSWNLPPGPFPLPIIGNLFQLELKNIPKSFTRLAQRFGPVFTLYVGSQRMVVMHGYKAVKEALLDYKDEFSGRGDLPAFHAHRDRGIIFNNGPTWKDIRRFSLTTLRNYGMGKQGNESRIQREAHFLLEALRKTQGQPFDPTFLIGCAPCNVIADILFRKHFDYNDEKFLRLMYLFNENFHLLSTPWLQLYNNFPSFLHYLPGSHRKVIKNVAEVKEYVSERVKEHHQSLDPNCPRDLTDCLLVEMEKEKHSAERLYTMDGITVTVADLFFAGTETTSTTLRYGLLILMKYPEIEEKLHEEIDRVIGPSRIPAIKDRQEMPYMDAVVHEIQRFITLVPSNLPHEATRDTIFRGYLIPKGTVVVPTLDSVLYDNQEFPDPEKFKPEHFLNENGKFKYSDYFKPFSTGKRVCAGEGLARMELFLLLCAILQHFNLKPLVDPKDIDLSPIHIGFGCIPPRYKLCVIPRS
# T1 sequence (P33261 whole entry): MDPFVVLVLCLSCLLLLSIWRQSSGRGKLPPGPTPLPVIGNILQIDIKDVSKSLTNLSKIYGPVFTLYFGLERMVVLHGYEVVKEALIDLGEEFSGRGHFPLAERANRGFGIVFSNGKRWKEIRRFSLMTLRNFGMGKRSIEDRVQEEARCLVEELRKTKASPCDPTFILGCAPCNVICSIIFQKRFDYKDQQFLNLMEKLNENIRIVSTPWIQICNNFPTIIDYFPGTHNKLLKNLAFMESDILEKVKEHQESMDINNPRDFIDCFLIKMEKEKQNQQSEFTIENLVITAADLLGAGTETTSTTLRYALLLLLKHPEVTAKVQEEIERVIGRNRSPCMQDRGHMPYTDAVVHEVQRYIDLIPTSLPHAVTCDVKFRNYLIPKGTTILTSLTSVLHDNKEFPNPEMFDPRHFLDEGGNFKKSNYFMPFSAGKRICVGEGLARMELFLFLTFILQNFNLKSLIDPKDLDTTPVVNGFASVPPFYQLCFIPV
smiles,measurement,setting,value
"COc1ccc(-c2cc(=O)c3c(O)c(OC)c(O)c(OC)c3o2)cc1 [lysionotin, Lysionotin]",effect of incubation time on the inhibition of CYP2C19,CYP2C19,relatively stable
same,effect on the activity of CYP2E1,CYP2E1,not affected
same,activity of CYP3A4 decreased by,"CYP3A4 [1]; 100 μM lysionotin, pooled HLMs",86.33%
same,inhibition model of CYP3A4,CYP3A4 [1]; Lineweaver-Burk plots,non-competitive
same,Ki,"CYP3A4 [1]; non-competitive model, testosterone 20–100 μM, pooled HLM",6.83 µM
same,IC50,"CYP3A4 [1]; pooled HLMs, testosterone 6β-hydroxylation",13.8 µM
same,effect on the activity of CYP2C9,CYP2C9,not affected
same,effect on the activity of CYP1A2,CYP1A2,not affected
same,effect of incubation time on the inhibition of CYP3A4,"CYP3A4 [2]; 20 μM lysionotin, 0–30 min",time-dependent
same,CYP3A4 inactivated every minute,CYP3A4 [2]; during incubation with lysionotin,about 4.8%
same,KI (inactivation),"CYP3A4 [2]; human, human liver microsomes, probe testosterone (approximately 4-fold Km), lysionotin 0–50 μM, preincubation 0–30 min, NADPH, printed as KI/Kinact",6.62 µM
same,Kinact for inactivation of CYP3A4,"CYP3A4 [2]; lysionotin 0–50 μM, preincubation 0–30 min, NADPH, printed as KI/Kinact",0.048 min⁻¹
same,Cmax in rat plasma,[3],58.4 ± 10.3 ng/mL
